The values below come from ChEMBL document CHEMBL1201862, “PubChem BioAssay data set” (2004).

As a reminder, the AC50 is the midpoint of the concentration-response curve, whichever way the signal moves. One may read the IC90 as the concentration at which the effect reaches the 90% level. One may read the IC50 as the concentration that inhibits the measured activity by half. The term EC50 denotes the midpoint of the concentration-response curve.

Molecules are shown by their SMILES. Structures can show the parent of a compound that is named as a salt. Calls of active or inactive are those of the source. Bounds are passed on as bounds.

The target in one experiment is Paired box protein Pax-8 (Homo sapiens, UniProt Q06710). The experiment can be described thus: PAX8 transcriptional activity inhibition in RMG-I – RMG-I cells, luciferase, cherry-pick, dose response (AID 687027).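 Also: luciferase reporter driven by Pax8 target thyroperoxidase promoter measured by SteadyGlo luminescence.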 In kind it is functional, cell-based.
The nature of experiment [1]: inhibitors acting on PAX2 in cells – cell-based, plate reader, dry powder samples, selectivity assay for PAX8 inhibitor project, dose response (AID 743048).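 Also: HEK293 cells carrying a WT1 promoter luciferase reporter driven by expressed Pax2; potency is for inhibition of Pax2 driven reporter signal.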 In kind it is functional.
Experiment [2] is described as follows: COV362 cell viability loss – plate reader, dry powder, SA12, cytotoxicity control for PAX8 inhibitor project, dose response (AID 743144). In kind it is functional, cell-based.
Experiment [3] can be described thus: toxicity toward immortalized ovarian surface epithelium – cell-based, plate reader, dry powder samples, cytotoxicity control for PAX8 inhibitor project, dose response (AID 743045). Type of experiment: functional.
Experiment [4] in a line: A2780 cell killing – plate reader, dry powder samples, cytotoxicity control, dose response (AID 743046). Type of experiment: functional, cell-based.
Experiment [5] is described as follows: OVCAR-3 cell viability loss – plate reader, dry powder samples, PAX8 inhibitor project, dose response (AID 743044). Type of experiment: functional, cell-based.
Experiment [6] can be described thus: PAX5 cellular inhibition readout – cell-based, plate reader, dry powder samples, selectivity assay for PAX8 inhibitor project, dose response (AID 743047).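 Also: HEK293 cells carrying a Pax5 driven CD19 promoter luciferase reporter; potency of inhibitors that lower reporter luminescence.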 Type of experiment: functional.
Experiment [7] in a line: IGROV1 cell killing – plate reader, dry powder samples, PAX8 inhibitor project, dose response (AID 743043). The note with it: IGROV-1. In kind it is functional, cell-based.
Experiment [8] is described as follows: OVCAR4 cell viability loss – plate reader, dry powder, SA11, cytotoxicity control for PAX8 inhibitor project, dose response (AID 743150). Type of experiment: functional, cell-based. The note with it: OVCAR-4.
The nature of experiment [9]: COV434 cell viability loss – plate reader, dry powder, SA7, cytotoxicity control for PAX8 inhibitor project, dose response (AID 743145). Type of experiment: functional, cell-based.
A short description of experiment [10]: OV-90 cell viability loss – plate reader, dry powder, SA8, PAX8 inhibitor project, dose response (AID 743149). Type of experiment: functional, cell-based.
The nature of experiment [11]: PAX8-dependent cell viability loss – plate reader, dry powder, dose response (AID 743049). Type of experiment: functional, cell-based.
Experiment [12] can be described thus: inhibitors of non-replicating M. tuberculosis, dose response, luciferase, dry powder (AID 651619). In kind it is functional. The note with it: Mycobacterium tuberculosis.
Experiment [13] is described as follows: inhibitors of non-replicating M. tuberculosis, dose response, luciferase, dry powder (AID 651620). In kind it is functional. The note with it: Mycobacterium tuberculosis.
Experiment [14] has as its target COUP transcription factor 2 (Homo sapiens, UniProt P24468). The experiment can be described thus: Luminescence-based cell-based high throughput dose response assay to identify inhibitors of COUP-TFII (NR2F2). Type of experiment: functional.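 Also: HEK293 cells transiently cotransfected with COUP-TFII expression vector and reporter; luciferase reporter luminescence driven by COUP-TFII from the pX2-168 reporter plasmid.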
Experiment [15] can be described thus: reduction of Shn3 3'UTR-driven luciferase in osteoblasts – cell-based, Clone20 osteoblasts, firefly luciferase, cherry-picked, dose response (AID 624132).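 Also: firefly luciferase luminescence from reporter carrying the Shn3 3'UTR in osteoblasts.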 In kind it is functional.
Experiment [16] is described as follows: Shn3 3'UTR reporter signal decrease – cell-based, Clone20 osteoblasts, firefly luciferase, cherry-pick, set 2, Schnurri-3 inhibitor project, dose response (AID 720490).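 Also: actives lower the luminescence signal as inhibitors.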 In kind it is functional.
Experiment [17] is described as follows: LMP1-induced NF-kB luciferase signal inhibition – cell-based, EBV LMP1, dry powder, set 2, dose response (AID 624361). Type of experiment: functional.
Experiment [18] has as its target NAD-dependent protein deacylase sirtuin-5, mitochondrial (Homo sapiens, UniProt Q9NXA8). Description: blockers of sirtuin-5 peptide desuccinylation – biochemical, fluorescence imaging, cherry-pick, set 6, dose response (AID 720597).
A further experiment has as its target T1, Protein skinhead-1 (Caenorhabditis elegans, UniProt P34707).
T1 sequence (P34707 whole entry): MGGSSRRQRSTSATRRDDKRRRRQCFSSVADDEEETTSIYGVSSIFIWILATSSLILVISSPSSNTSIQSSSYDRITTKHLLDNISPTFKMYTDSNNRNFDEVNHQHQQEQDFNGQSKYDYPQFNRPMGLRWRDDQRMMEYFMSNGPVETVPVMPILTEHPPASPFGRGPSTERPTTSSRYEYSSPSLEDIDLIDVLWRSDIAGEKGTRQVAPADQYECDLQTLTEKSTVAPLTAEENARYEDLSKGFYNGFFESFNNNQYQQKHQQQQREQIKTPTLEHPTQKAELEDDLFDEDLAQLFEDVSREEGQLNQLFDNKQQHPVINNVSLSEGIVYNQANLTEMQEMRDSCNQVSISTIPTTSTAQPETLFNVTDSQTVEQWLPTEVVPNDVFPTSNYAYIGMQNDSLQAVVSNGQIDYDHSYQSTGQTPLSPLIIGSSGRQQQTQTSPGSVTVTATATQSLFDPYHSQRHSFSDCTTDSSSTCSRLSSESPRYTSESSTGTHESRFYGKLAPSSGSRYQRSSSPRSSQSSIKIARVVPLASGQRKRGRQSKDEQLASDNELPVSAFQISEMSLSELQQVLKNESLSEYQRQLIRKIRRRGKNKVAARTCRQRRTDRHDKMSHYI
Type of experiment: functional.

In experiment [19] the target is T2, Oxysterols receptor LXR-beta (Homo sapiens, UniProt P55055).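 Also: Cell-based luminescence dose-response assay of agonist activity at LXR, run as a confirmatory counterscreen to a daf-12 agonist screen; HEK293 cells with Gal4-LXR fusion and GAL4-driven luciferase reporter; agonist potency from rising luciferase signal of a Gal4-LXR reporter.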
T2 sequence (P55055 whole entry): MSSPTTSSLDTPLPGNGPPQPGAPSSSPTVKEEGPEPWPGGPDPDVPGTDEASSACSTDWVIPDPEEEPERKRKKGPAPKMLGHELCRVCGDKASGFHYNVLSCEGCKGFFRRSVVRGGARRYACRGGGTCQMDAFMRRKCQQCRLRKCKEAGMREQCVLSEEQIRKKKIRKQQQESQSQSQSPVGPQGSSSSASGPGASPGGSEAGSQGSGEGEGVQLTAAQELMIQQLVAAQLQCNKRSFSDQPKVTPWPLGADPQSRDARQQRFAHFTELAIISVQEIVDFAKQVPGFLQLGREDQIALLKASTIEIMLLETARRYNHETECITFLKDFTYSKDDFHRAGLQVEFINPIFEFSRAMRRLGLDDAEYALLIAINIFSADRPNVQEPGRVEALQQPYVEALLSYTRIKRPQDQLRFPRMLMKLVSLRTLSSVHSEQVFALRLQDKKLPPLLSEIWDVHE
In kind it is functional, cell-based.

A short description of experiment [20]: cells.
Experiment [21] can be described thus: luciferase reporter signal suppression in cells – H4 neuroglioma cells, luminescence, dose response (AID 1990). Type of experiment: functional, cell-based. (In general: A reporter such as luciferase makes a cellular process visible.)
Experiment [22] is described as follows: Luminescence Cell-Based Dose Response HTS to Identify Inhibitors of 5'UTR Stem-Loop Driven Prion Protein mRNA Translation in H4 Neuroglioblastoma Cells. [Related pubchem assays: 1827 (Project Summary), 1813 (Primary HTS)]. In kind it is functional.
Experiment [23] concerns the target T3, DNA repair and recombination protein RAD54-like (Homo sapiens, UniProt Q92698).
T3 sequence (Q92698 whole entry): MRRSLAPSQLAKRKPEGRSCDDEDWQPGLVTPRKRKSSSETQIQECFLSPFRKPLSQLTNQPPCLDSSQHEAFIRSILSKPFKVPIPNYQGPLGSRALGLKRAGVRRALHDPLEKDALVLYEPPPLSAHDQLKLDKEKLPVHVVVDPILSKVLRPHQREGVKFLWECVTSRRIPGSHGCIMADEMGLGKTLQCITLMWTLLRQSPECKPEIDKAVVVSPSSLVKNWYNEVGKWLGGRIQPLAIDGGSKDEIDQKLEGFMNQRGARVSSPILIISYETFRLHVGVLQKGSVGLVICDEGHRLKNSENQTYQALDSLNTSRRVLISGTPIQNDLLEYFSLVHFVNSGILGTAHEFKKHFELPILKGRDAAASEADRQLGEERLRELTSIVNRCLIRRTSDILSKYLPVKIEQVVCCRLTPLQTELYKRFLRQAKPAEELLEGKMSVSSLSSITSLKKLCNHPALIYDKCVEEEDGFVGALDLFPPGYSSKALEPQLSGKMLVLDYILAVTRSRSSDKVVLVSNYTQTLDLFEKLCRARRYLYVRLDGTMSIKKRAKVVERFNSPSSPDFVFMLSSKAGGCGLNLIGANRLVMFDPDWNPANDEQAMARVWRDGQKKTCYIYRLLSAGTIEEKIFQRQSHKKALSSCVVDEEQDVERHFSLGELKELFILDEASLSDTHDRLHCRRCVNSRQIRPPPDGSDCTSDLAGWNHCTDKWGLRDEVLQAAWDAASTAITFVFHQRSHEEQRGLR
The experiment can be described thus: RAD54 Holliday junction migration blockers – biochemical, fluorescence, cherry-picked samples, dose series, confirmation (AID 651657). Type of experiment: functional.

For experiment [24], the target named is SWI/SNF-related matrix-associated actin-dependent regulator of chromatin subfamily A member 2 (Homo sapiens, UniProt P51531). The experiment can be described thus: Luminescence-based cell-based high throughput dose response assay to identify activators of the function of SWI/SNF related, matrix associated, actin dependent regulator of chromatin, subfamily a, member 2 (SMARCA2, BRM). In kind it is functional.

Experiment [25] is described as follows: Counterscreen for activators of the function of SWI/SNF related, matrix associated, actin dependent regulator of chromatin, subfamily a, member 2 (SMARCA2, BRM): Luminescence-based cell-based high throughput dose response assay to identify non-selective compounds using the VP16 reporter assay. Type of experiment: functional. (In general: Counterscreens check selectivity or assay interference.)

In experiment [26] the target is DNA repair protein RAD52 homolog (Homo sapiens, UniProt P43351). Type of experiment: functional, biochemical.
The nature of experiment [27]: viability loss in HepG2 liver cells – cell-based, ATP luminescence, cherry-pick, set 6, cytotoxicity control, dose response (AID 1053125). Type of experiment: functional.
The subject of experiment [28] is HEK293. Description: cells. The note with it: Homo sapiens.
Experiment [29] relates to HEK293. Description: cells. The note with it: Homo sapiens. The source holds these as a separate data set.
Experiment [30] is described as follows: cells. The note with it: A549.
A short description of experiment [31]: cells. The source holds these as a separate data set.
The nature of experiment [32]: cells. The note with it: HEK293.

Chain of Paired box protein Pax-8 (Q06710 whole entry): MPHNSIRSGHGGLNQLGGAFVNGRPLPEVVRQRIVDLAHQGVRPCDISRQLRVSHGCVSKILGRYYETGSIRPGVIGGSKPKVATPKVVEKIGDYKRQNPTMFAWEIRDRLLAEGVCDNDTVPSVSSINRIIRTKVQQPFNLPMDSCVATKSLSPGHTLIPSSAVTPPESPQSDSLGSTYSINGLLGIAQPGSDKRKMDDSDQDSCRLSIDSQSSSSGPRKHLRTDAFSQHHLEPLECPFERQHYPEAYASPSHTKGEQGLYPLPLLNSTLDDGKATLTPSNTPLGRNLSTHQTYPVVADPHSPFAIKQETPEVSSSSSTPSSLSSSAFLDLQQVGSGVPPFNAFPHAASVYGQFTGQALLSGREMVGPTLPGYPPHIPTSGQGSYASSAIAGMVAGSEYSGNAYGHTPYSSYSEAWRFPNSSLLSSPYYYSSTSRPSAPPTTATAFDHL
Chain of SWI/SNF-related matrix-associated actin-dependent regulator of chromatin subfamily A member 2 (P51531 whole entry): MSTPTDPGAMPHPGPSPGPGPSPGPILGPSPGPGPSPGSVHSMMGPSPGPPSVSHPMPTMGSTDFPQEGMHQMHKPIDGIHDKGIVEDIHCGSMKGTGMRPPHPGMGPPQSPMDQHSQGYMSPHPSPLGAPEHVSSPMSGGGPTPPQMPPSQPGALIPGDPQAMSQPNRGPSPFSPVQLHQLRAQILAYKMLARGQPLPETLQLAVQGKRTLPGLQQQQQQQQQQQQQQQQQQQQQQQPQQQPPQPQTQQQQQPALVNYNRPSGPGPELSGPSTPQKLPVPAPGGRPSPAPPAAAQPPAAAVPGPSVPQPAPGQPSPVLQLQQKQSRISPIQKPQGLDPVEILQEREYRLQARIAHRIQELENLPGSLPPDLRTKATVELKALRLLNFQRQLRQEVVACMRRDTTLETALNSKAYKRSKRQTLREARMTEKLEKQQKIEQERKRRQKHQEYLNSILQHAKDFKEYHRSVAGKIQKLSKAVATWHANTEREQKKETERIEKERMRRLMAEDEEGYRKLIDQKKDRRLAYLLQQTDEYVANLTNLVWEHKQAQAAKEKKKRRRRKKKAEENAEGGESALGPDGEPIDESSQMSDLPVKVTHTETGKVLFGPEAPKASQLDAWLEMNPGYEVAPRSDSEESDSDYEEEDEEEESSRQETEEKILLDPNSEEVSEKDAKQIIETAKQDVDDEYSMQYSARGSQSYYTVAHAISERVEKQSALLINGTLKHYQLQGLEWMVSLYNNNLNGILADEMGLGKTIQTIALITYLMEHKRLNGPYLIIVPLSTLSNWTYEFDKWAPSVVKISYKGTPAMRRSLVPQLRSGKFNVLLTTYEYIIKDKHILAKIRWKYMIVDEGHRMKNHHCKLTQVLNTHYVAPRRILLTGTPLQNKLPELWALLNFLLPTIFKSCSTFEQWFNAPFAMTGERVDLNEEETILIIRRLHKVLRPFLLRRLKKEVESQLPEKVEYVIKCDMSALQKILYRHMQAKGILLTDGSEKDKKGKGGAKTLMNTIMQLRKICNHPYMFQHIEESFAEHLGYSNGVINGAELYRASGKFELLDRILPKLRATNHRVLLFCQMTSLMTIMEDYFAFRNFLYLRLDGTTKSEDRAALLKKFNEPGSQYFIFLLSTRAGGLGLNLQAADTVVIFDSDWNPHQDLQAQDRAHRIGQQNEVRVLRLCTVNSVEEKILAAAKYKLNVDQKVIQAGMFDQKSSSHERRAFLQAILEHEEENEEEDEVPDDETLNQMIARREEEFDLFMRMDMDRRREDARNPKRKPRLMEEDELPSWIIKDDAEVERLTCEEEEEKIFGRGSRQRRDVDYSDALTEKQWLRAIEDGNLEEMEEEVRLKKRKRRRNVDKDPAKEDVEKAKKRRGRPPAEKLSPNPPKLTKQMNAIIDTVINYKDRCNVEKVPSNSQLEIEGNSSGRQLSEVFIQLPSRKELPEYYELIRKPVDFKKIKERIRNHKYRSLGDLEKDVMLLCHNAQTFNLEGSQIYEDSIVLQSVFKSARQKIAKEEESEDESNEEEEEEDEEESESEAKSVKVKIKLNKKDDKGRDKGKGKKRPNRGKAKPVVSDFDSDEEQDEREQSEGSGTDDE
Chain of NAD-dependent protein deacylase sirtuin-5, mitochondrial (Q9NXA8 whole entry): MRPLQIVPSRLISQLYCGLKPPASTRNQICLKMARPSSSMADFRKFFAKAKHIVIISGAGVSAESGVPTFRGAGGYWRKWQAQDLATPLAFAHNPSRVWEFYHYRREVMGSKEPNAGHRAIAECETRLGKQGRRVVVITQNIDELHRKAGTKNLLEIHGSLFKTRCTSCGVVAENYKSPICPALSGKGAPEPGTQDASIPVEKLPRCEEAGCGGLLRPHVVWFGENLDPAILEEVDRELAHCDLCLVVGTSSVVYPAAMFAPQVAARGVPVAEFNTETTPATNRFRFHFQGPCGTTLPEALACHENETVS
Chain of COUP transcription factor 2 (P24468 whole entry): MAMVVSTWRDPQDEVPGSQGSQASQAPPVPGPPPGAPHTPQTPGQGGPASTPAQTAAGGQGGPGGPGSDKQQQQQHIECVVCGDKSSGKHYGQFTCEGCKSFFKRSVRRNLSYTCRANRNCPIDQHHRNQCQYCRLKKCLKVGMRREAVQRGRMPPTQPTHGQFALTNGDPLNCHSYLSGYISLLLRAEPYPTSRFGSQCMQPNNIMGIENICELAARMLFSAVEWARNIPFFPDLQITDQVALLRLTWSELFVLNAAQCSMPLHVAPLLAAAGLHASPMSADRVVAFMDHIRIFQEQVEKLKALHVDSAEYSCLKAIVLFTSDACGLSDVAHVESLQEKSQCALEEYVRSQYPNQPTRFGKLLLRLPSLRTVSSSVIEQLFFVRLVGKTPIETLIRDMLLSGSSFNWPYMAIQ
Chain of DNA repair protein RAD52 homolog (P43351 whole entry): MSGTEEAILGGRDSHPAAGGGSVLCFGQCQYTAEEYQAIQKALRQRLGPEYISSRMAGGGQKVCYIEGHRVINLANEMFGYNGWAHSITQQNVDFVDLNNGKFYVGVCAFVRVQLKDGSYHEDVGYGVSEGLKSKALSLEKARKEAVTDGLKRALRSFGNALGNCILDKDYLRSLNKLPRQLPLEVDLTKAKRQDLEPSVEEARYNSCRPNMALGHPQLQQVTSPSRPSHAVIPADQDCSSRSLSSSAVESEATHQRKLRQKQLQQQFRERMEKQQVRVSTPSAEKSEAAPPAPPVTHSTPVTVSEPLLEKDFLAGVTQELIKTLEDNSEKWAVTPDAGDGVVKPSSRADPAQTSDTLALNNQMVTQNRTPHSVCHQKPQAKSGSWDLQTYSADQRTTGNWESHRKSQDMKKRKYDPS

Regarding `COc1ccc(/C=C/C(=O)c2cc(F)ccc2OC(=O)c2ccccc2C)cc1OC`, the AC50 at Paired box protein Pax-8 is 1.74 µM (active); in experiment [1], > 100 µM (inactive); in [2] it was 2.52 µM (active); in experiment [3], 4.08 µM (active); in [4] it was 3.22 µM (active); in [5], 13.2 µM (active). Also, the AC50 in [6] was 31.1 µM (active); in [7] it was 3.26 µM (active); in [8] it was 1.71 µM (active); in experiment [9], 1.79 µM (active); in [10], 4.08 µM (active); in experiment [11], 5.56 µM (active).

Regarding `[O-][n+]1ccccc1CSc1nnc(-c2ccccc2)o1`, the IC90 in [12] and in experiment [13] was 31 µM (active) each time.

Take `CCN(CC)S(=O)(=O)c1ccc(/C=C/C(=O)Nc2ccc(Br)cc2F)cc1`: the IC50 in experiment [14] was 5.05 µM (active).

As to `COc1ccc(CNC(=O)C(c2ccc(C)cc2)N(Cc2cccs2)C(=O)c2ccc3c(c2)OCCO3)cc1` (centres undefined), the values for the AC50 in experiment [15] and in experiment [16] were 8.1 µM (active) and 13.8 µM (active), respectively.

In [17], `Cc1noc(C)c1S(=O)(=O)Nc1ccc2c(c1)C(=O)N([C@H](C)CO)C[C@@H](C)[C@H](CN(C)Cc1ccc(C(F)(F)F)cc1)OCCCC[C@@H](C)O2` showed an AbsAC35 of 39.54 µM. Also, the AC50 in experiment [18] is > 30 µM (inactive).

Turning to `Fc1ccc(-c2nnc(-c3ccc4ccccc4c3)o2)cc1`, the IC50 on Protein skinhead-1 is > 100 µM (inactive). Also, the EC50 (in [19]; in “cells [20]”) was > 67.5 µM (inactive) throughout.

As to `Nc1c2ccccc2nc2ccccc12` [AMINACRINE HYDROCHLORIDE], the EC50 in experiment [21] was > 120 µM (not active); in [22], > 60 µM (not active); in experiment [24] it was > 3.38 µM (active); in experiment [25] it was > 91.1 µM (inactive); in the experiment with HEK293 [28], > 2.21 µM (active); in the experiment on HEK293 [29] it was > 59.7 µM (inactive). Moreover, the AC50 in experiment [23] was 2.76 µM (active); in experiment [26] it was < 1.92 µM (active); in experiment [27], 7.15 µM (active); in “cells [30]”, 4.06 µM (active); in “cells [31]”, 0.341 µM (active); in the experiment “cells [32]” it was 2.57 µM (active).
